Several values for one entry are separate records, joined by “and”; a condition that tells them apart may be missing. Identical values can stand only once.
Experiments:
[1] = tested on: C. elegans emb-8(hc69); emb-8(RNAi); experiment: Motor phenotype time course on 60 μM Nemacol-1, EMB-8 disruption vs wild type; format: in vivo, Caenorhabditis elegans; settings: for adult worms C1 (loose coil) / adult worms C2 (tight coil) / adult worms NP (no phene) / adult worms J (jerky-unc): count per bio rep
C. elegans = experiment: as above; format: in vivo, Caenorhabditis elegans
HEK293 cells = settings: cited from earlier work
[2] = N2, 60µM, 1h, average of 3 biological repeats
[3] = N2, 60µM, 4h, average of 3 biological repeats
[4] = N2, 60µM, 6h, average of 3 biological repeats
[5] = N2, 60µM, 24h, average of 3 biological repeats
[6] = emb-8, 60µM, 1h, average of 3 biological repeats
[7] = emb-8, 60µM, 4h, average of 3 biological repeats
[8] = emb-8, 60µM, 6h, average of 3 biological repeats
[9] = emb-8, 60µM, 24h, average of 3 biological repeats

## O=[N+]([O-])c1ccc(N2CCN(CC3CCCCC3)CC2)cc1 [Nemacol-1]
[1]; [2]
  Fraction Coiled: 0.5185
  Fraction Jerky-Unc: 0.2778
  Fraction Parayzed: 0.2037
[1]; N2, 60µM, 1h
  adult worms C1 (loose coil): 4 and 3 and 5
  adult worms C2 (tight coil): 6 and 4
  adult worms NP (no phene): 0
[1]; N2, 60µM, 1h, per bio rep
  Fraction Coiled: 0.5000 and 0.5556
[1]; [3]
  Fraction Coiled: 0.1111
  Fraction Jerky-Unc: 0.2963
  Fraction Parayzed: 0.0185
[1]; N2, 60µM, 4h
  adult worms J (jerky-unc): 7 and 5 and 4
  adult worms NP (no phene): 7 and 14 and 10
[1]; N2, 60µM, 4h, per bio rep
  Fraction Jerky-Unc: 0.2222 and 0.3889 and 0.2778
[1]; [4]
  Fraction Coiled: 0.0556
  Fraction Jerky-Unc: 0.2037
  Fraction Parayzed: 0.0000
[1]; N2, 60µM, 6h
  adult worms J (jerky-unc): 3 and 5
  adult worms NP (no phene): 15 and 10
[1]; N2, 60µM, 6h, per bio rep
  Fraction Jerky-Unc: 0.1667 and 0.2778
  Fraction Parayzed: 0.0000
[1]; [5]
  Fraction Coiled: 0.0000
  Fraction Jerky-Unc: 0.0000
  Fraction Parayzed: 0.0000
[1]; N2, 60µM, 24h
  adult worms C1 (loose coil): 0
  adult worms C2 (tight coil): 0
  adult worms J (jerky-unc): 0
  adult worms NP (no phene): 18
[1]; N2, 60µM, 24h, per bio rep
  Fraction Coiled: 0.0000
  Fraction Jerky-Unc: 0.0000
  Fraction Parayzed: 0.0000
[1]; [6]
  Fraction Coiled: 0.5000
  Fraction Jerky-Unc: 0.2778
  Fraction Parayzed: 0.2222
[1]; emb-8, 60µM, 1h
  adult worms C1 (loose coil): 3 and 4
  adult worms C2 (tight coil): 6 and 4
  adult worms J (jerky-unc): 5 and 4 and 6
  adult worms NP (no phene): 0
[1]; emb-8, 60µM, 1h, per bio rep
  Fraction Coiled: 0.5556 and 0.5000 and 0.4444
  Fraction Jerky-Unc: 0.3333 and 0.2778 and 0.2222
[1]; [7]
  Fraction Coiled: 0.1481
  Fraction Jerky-Unc: 0.3889
  Fraction Parayzed: 0.4630
[1]; emb-8, 60µM, 4h
  adult worms NP (no phene): 0
[1]; [8]
  Fraction Coiled: 0.3704
  Fraction Jerky-Unc: 0.2778
  Fraction Parayzed: 0.3519
[1]; emb-8, 60µM, 6h
  adult worms C2 (tight coil): 4 and 3
  adult worms NP (no phene): 0
[1]; [9]
  Fraction Coiled: 0.2963
  Fraction Jerky-Unc: 0.2222
  Fraction Parayzed: 0.4815
[1]; emb-8, 60µM, 24h
  adult worms NP (no phene): 0
[1]; emb-8, 60µM, 24h, per bio rep
  Fraction Coiled: 0.3333 and 0.2222
C. elegans; [2]
  Fraction No Phenotype: 0.0000
C. elegans; N2, 60µM, 1h, per bio rep
  Fraction No Phenotype: 0.0000
C. elegans; [3]
  Fraction No Phenotype: 0.5741
C. elegans; N2, 60µM, 4h, per bio rep
  Fraction No Phenotype: 0.3889 and 0.5556 and 0.7778
C. elegans; [4]
  Fraction No Phenotype: 0.7407
C. elegans; N2, 60µM, 6h, per bio rep
  Fraction No Phenotype: 0.8333 and 0.5556
C. elegans; [5]
  Fraction No Phenotype: 1.0000
C. elegans; N2, 60µM, 24h, per bio rep
  Fraction No Phenotype: 1.0000
C. elegans; [6]
  Fraction No Phenotype: 0.0000
C. elegans; emb-8, 60µM, 1h, per bio rep
  Fraction No Phenotype: 0.0000
C. elegans; [7]
  Fraction No Phenotype: 0.0000
C. elegans; emb-8, 60µM, 4h, per bio rep
  Fraction No Phenotype: 0.0000
C. elegans; [8]
  Fraction No Phenotype: 0.0000
C. elegans; emb-8, 60µM, 6h, per bio rep
  Fraction No Phenotype: 0.0000
C. elegans; [9]
  Fraction No Phenotype: 0.0000
C. elegans; emb-8, 60µM, 24h, per bio rep
  Fraction No Phenotype: 0.0000

## CCC1CCC(N2CCN(c3ccc([N+](=O)[O-])cc3)CC2)CC1 (centres unmarked) [Nemacol-2]
HEK293 cells
  result in previous counter-screens: adverse effects
HEK293 cells; ref Burns et al., 2015
  activity in preliminary HEK293 cell-based assays: higher activity
